≈ marks a conversion by molar mass, not a printed value. Where two headings read alike, the source gives them in different places.
What was measured:
[1] = tested on: AB electron transport chain (ETC); test: AB electron transport chain inhibition: NADH-driven H+ pumping, ACMA fluorescence quenching; type: biochemical, Acinetobacter baumannii; settings: at 2 μg/mL compound
Method: To ensure that the pyridine analogs were selectively inhibiting AB ATP synthase, each analog was also evaluated for inhibition of the AB electron transport chain (ETC) at 2 μg/mL using a standard protocol. − Briefly, respiratory dehydrogenase complexes were energized with NADH to initiate redox-driven H^+ pumping into the vesicle lumen, which was in turn detected by the quenching of 9-amino-6-chloro-2-methoxyacradine fluorescence. Most compounds were tested at concentrations of 2 μg/mL to establish whether ETC inhibition occurred in the same range as ATP synthase inhibition (Figure S2).
NADH-driven proton pumping activity in inverted membrane vesicles was measured as previously described. Briefly, vesicles were diluted to 0.5 mg/mL in HMK buffer (50 mM HEPES, 2 mM MgCl2, 300 mM KCl, pH 7.5) with 0.3 μg/mL 9-amino-6-chloro-2-methoxyacridine (ACMA) and distributed into wells of a black 96-well plate containing various concentrations of inhibitors dissolved in DMSO. ACMA fluorescence (λex = 415 nm, λem = 485 nm) was monitored using a BioTek H1 multimode plate reader. Proton pumping was initiated by addition of NADH to 0.8 mM and terminated by addition of nigericin to 0.5 μg/mL. Activity was defined as the percent quenching of fluorescence, where fluorescence values are normalized to the maximum fluorescence following the addition of nigericin.
Figure S2. Inhibition of the AB electron transport chain (ETC) by compounds at 2 µg/mL.
ETC H+-pumping activity in inverted inner membrane vesicles prepared from AB cells was determined by the quenching of ACMA dye upon initiation with NADH. Addition of nigericin returned fluorescence to baseline, and relative fluorescence quenching is defined as the minimum fluorescence over the maximum fluorescence after addition of nigericin. Relative ETC inhibition (bars) is the fraction of fluorescence quenching decreased by the presence of 2 µg/mL compound.
(1 picture or pasted object on this page, not shown here)

[2] = tested on: HEK 293 cells; test: XTT cell viability cytotoxicity assay; settings: n = 3, 24 h treatment
[3] = target: T1, A. baumannii ATP synthase (Acinetobacter baumannii, UniProt A3M139); test: AB ATP synthase inhibition: NADH-driven ATP synthesis in inverted inner membrane vesicles, luciferin/luciferase readout; type: biochemical; settings: for Hill coefficient (Hill slope): fit of ATP synthesis dose response curve
T1 construct: endogenous electron transport chains of inverted inner membrane vesicles were energized with NADH; endogenous in cells; host or cells: inverted inner membrane vesicles prepared from A. baumannii ATCC 17978 cells
T1 sequence (A3M139 whole entry): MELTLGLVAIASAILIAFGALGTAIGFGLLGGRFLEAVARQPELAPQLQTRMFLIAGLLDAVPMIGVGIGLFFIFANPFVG
Method: Once synthesized, the pyridine compounds were tested for their ability to inhibit ATP synthase activity using our previously reported luciferin/luciferase assay. Briefly, endogenous electron transport chains of inverted inner membrane vesicles were energized with NADH to generate a proton gradient and to drive ATP synthesis. ATP was measured via luminescence from the luciferase-catalyzed oxidation of D-luciferin. Luminescence activities across increasing inhibitor concentrations were corrected for gradient independent background sources of ATP by comparison with a control containing the protonophore CCCP (carbonyl cyanide 3-chlorophenylhydrazone). The data were then fit to a four-parameter logistic dose–response curve, from which IC50 values and Hill coefficients were determined using a nonlinear least-squares regression.
A. baumannii (ATCC 17978) cells were grown in LB medium at 37 °C with shaking at 150 rpm and harvested by centrifugation in the late exponential phase of growth. Cells were resuspended in TMG buffer (50 mM Tris-HCl, pH 7.5, 5 mM MgCl2, 10% v/v glycerol) with 1 mM phenylmethanesulfonyl fluoride, 1 mM dithiothreitol, and a small amount of DNase and lysed by two passes through an Avestin B15 homogenizer at 19,000 psi. Lysate was cleared by centrifugation at 9000g and inverted membrane vesicles were collected from the supernatant by centrifugation at 169,000g. To reduce background ATP synthesis activity in AB vesicles, it was important to wash the membranes by resuspending in TMG buffer and centrifuging again at 169,000g. Washed pellets were resuspended in TMG buffer, and aliquots were stored at −80 °C. Once thawed, aliquots were not refrozen. Protein concentration in membrane vesicles was determined using a modified Lowry assay.
In vitro ATP synthesis activity of inverted inner membrane vesicles was measured as previously described. A reaction solution was prepared containing 5 mM tricine-KOH, pH 8.0, 50 mM KCl, 2.5 mM MgCl2, 0.1 mM adenosine diphosphate, 3.75 mM potassium phosphate, and 2.5 mM NADH and distributed into a 96-well plate. NADH-driven ATP synthesis was initiated by addition of inverted vesicles to 50 μg/mL and allowed to proceed for 10 min. The reaction was stopped by transferring an aliquot into 1% trichloroacetic acid. The stopped reaction was diluted 100-fold with deionized water and a sample was transferred to luciferase solution containing 25 mM tricine-NaOH, pH 7.8, 5 mM MgSO4, 0.1 mM EDTA, 0.1 mM NaN3, 150 μg/mL luciferin, and 7.5 μg/mL luciferase. Luminescence was measured in an opaque white 96-well plate using a BioTek H1 multimode plate reader. Each replicate set included a positive control containing DMSO with no compound and a negative control containing carbonyl cyanide 3-chlorophenylhydrazone (CCCP). Luminescence values were corrected for background by subtracting the CCCP control and normalized to the luminescence of the DMSO control. Normalized activity was fit using a variable-slope dose response curve. Nonlinear regression, including prediction of 95% confidence bands, and pairwise comparisons of fits using the F-test method were completed using GraphPad Prism10. Relativeactivity=1/1+(c/IC50)^Hillslope […]
Figure S1. ATP synthesis inhibition by all pyridine compounds in order of WSA compound number. ATP synthesis activities in inverted inner membrane vesicles prepared from AB cells were measured in the presence of 0.0625-64 µg/mL, corrected for background ATP, and normalized to activity with DMSO alone (see methods). For each plot, dots are normalized activities at each concentration (n≥3) on a log 2 scale, solid lines are fitted dose response curves, and dashed lines show the 95% confidence range of the fit. IC50

[4] = tested on: MDR AB BAA 1605; test: Broth microdilution antimicrobial susceptibility assay, MDR isolate; settings: Acinetobacter baumannii, BAA1605, read-out: MIC, MDR AB BAA 1605
[5] = tested on: AB ATCC 17978; test: Broth microdilution antimicrobial susceptibility assay, susceptible isolate; settings: Acinetobacter baumannii, ATCC17978, read-out: MIC, AB ATCC 17978
[6] = tested on: AB BAA 1605; test: Checkerboard assay with colistin sulfate, BAA 1605; settings: for MIC: Acinetobacter baumannii, BAA1605, read-out: MIC alone, AB BAA 1605; for fold change of MIC, AB BAA 1605: alone vs +colistin; for fractional inhibitory concentration index (FICI) / interaction with colistin, MDR AB BAA 1605: synergistic FICI ≤ 0.5, additivity FICI 0.5 < x < 1
Method: (§1) Synthesized compounds in DMSO (2–128 μg/mL, row G-A) were combined with colistin sulfate in ultra purified water (0.125–32 μg/mL, column 2–10) in a 96-well microtiter plate checkerboard assay against ATCC 17978 and BAA-1605 (MDR). Briefly, liquid cultures of bacteria were grown for 14–16 h by inoculating a single bacterial culture into 10 mL TSB. To each well 88 μL of TSB, 10 μL of bacteria culture, and 1 from each master plate was added (see layout below). Plates were covered and incubated at 37 °C for 12–18 h.

[7] = tested on: AB ATCC 17978; test: Checkerboard assay with colistin sulfate, ATCC 17978; settings: for MIC: Acinetobacter baumannii, ATCC17978, read-out: MIC alone, AB ATCC 17978; for fold change of MIC, AB ATCC 17978: alone vs +colistin; for fractional inhibitory concentration index (FICI) / interaction with colistin, AB ATCC 17978: synergistic FICI ≤ 0.5, additivity FICI 0.5 < x < 1
Method: as §1

[8] = target: T1, A. baumannii ATP synthase; parameters: method as in PMID 40014581; settings: quinoline lead of the earlier series, comparison; read-out: IC50, AB ATP synthase (converted); cited from earlier work
[9] = tested on: MDR AB BAA 1605; parameters: method as in PMID 40014581; settings: quinoline lead of the earlier series, Figure 1; cited from earlier work
[10] = inverted inner membrane vesicles, 0.0625-64 µg/mL, n≥3, Table S1, read-out: AB ATP Synthase Inhibition IC50 (converted)
[11] = Figure 2, read-out: IC50, AB ATP synthase inhibition (converted)

| Structure (SMILES) | ETC inhibition [1] [%] | MIC, HEK 293 (cytotoxicity) [2] [µg/mL] | Hill coefficient (Hill slope) [3] | IC50 [3, 10] [nM] | MIC [4] [µg/mL] | MIC [5] [µg/mL] | IC50 [3, 11] [nM] | MIC [6] [µg/mL] | fold change of MIC, AB BAA 1605 [6] | MIC +colistin, AB BAA 1605 ([6]; with 0.125 μg/mL colistin) | MIC [7] [µg/mL] | fold change of MIC, AB ATCC 17978 [7] | MIC +colistin, AB ATCC 17978 ([7]; with 0.5 μg/mL colistin) | IC50 [8] [nM] | fractional inhibitory concentration index (FICI) / interaction with colistin, MDR AB BAA 1605 [6] | MIC +colistin, AB BAA 1605 ([6]; with 0.25 μg/mL colistin) | MDR AB MIC [9] [µg/mL] | fractional inhibitory concentration index (FICI) / interaction with colistin, AB ATCC 17978 [7] | MIC +colistin, AB ATCC 17978 ([7]; with 0.25 μg/mL colistin) |
| --- | --- | --- | --- | --- | --- | --- | --- | --- | --- | --- | --- | --- | --- | --- | --- | --- | --- | --- | --- |
| CN1CCN(CCNCc2cc(-c3ccc(F)cc3F)cnc2SCc2ccccc2)CC1 [WSA 274] | 40 | 4 (≈ 8.54 µM) | -0.8 | 1710 | 128 (≈ 273 µM) | 32 (≈ 68.3 µM) | – | – | – | – | – | – | – | – | – | – | – | – | – |
| Cc1ccc(-c2cnc(SCc3ccccc3)c(CNCCN3CCN(C)CC3)c2)cc1 [WSA 280] | – | 16 (≈ 35.8 µM) | -0.8 | – | 32 (≈ 71.6 µM) | 16 (≈ 35.8 µM) | 1540 | 32 | 2 | 16 (0.125 μg/mL Col) | 16 | 2 | 8 (0.5 μg/mL Col) | – | – | – | – | – | – |
| CCN1CCC(CCNCc2cc3cc(-c4ccccc4)ccc3nc2SCc2ccccc2)CC1 [WSA 261, reference compound] | – | 8 (≈ 16.1 µM) | – | – | 16 (≈ 32.3 µM) | 8 (≈ 16.1 µM) | – | 16 | 2 | – | 8 | 2 | 4 (0.5 μg/mL Col) | 1550 | additivity | 8 (0.25 μg/mL Col) | 16 | additivity | – |
| CN1CCN(CCNCc2cc(-c3ccc(N(C)C)cc3)cnc2SCc2ccccc2)CC1 [WSA 276] | – | 16 (≈ 33.6 µM) | -0.6 | – | 32 (≈ 67.3 µM) | 16 (≈ 33.6 µM) | 673 | 32 | 4 | – | 16 | 2 | 8 (0.5 μg/mL Col) | – | synergy | 8 (0.25 μg/mL Col) | – | – | – |
| Cc1ccc(-c2cnc(SCc3ccccc3)c(CNCCC3CCN(C4CCCC4)CC3)c2)cc1 [WSA 289] | – | 16 (≈ 32 µM) | -0.7 | – | 32 (≈ 64 µM) | 16 (≈ 32 µM) | 480 | 32 | 2 | 16 (0.125 μg/mL Col) | 16 | 4 | – | – | – | – | – | ≤ 0.5 | – |
| COc1ccc(-c2cnc(SCc3ccccc3)c(CNCCC3CCN(C4CCCC4)CC3)c2)cc1 [WSA 288] | – | 16 (≈ 31 µM) | -0.9 | – | 32 (≈ 62 µM) | 16 (≈ 31 µM) | 485 | 32 | 4 | – | 16 | 4 | – | – | synergy | 8 (0.25 μg/mL Col) | – | ≤ 0.5 | – |
| CN1CCN(CCNCc2cc(-c3ccc(F)cc3)cnc2SCc2ccccc2)CC1 [WSA 273] | 40 | 4 (≈ 8.88 µM) | -0.8 | 1890 | 128 (≈ 284 µM) | 32 (≈ 71 µM) | – | – | – | – | – | – | – | – | – | – | – | – | – |
| COc1ccc(-c2cnc(SCc3ccccc3)c(CNCCN3CCN(C)CC3)c2)cc1F [WSA 275] | 40 | 4 (≈ 8.32 µM) | -0.7 | 499 | 128 (≈ 266 µM) | 32 (≈ 66.6 µM) | 416 | – | – | – | – | – | – | – | – | – | – | – | – |
| Fc1ccc(-c2cnc(SCc3ccccc3)c(CNCc3ccc(CN4CCCC4)cc3)c2)cc1 [WSA 298] | – | 16 (≈ 32.1 µM) | -0.8 | – | 32 (≈ 64.3 µM) | 16 (≈ 32.1 µM) | 1310 | 32 | 4 | – | 16 | 2 | – | – | synergy | 8 (0.25 μg/mL Col) | – | – | 8 (0.25 μg/mL Col) |

From PMC12509006, “Synthesis and Evaluation of Pyridine-Based Antibacterial Agents that Inhibit ATP Synthase in Acinetobacter baumannii” (ACS Omega, 2025)
